Data published in patent US4560676A, “N^α -desacetylthymosinα1 and process” (The Rockefeller University, priority 1981, dated 1985).
Where no end group is shown, it is not given here.

Columns and labels:
[1] = test system: spleen cells of adult thymectomized mice; assay: rosette inhibition assay (azathioprine-sensitive rosette assay); format: cell-based; settings: restoration of azathioprine sensitivity in rosette formation
Experimental: The desacetylthymosin α1 prepared and characterized above was compared with thymosin α1, prepared on both benzyhydrylamine and PAM resins in the rosette inhibition assay (azathioprine-sensitive rosette assay) as described by Dardenne and Bach in "The Biological Action of Thymic Hormones" (van Bekkum, D. K., Ed.), page 235 (Kooyker Scientific Publications, Rotterdam, 1975). In this assay the peptides are tested for ability to restore azathioprine sensitivity in rosette formation by spleen cells of adult thymectomized mice.

[2] = test system: T-cell differentiation and function; settings: several in vitro and in vivo assay systems; cited from earlier work

Substance	activity in rosette inhibition assay compared with each other and with natural thymosin α1 [1]	activity relative to fraction 5 [2] [times]
SDAAVDTSSEITTKDLKEKKEVVEEAEN [desacetylthymosin α1, N^α -desacetylthymosin α1]	equally active	–
thymosin α1 (SDAAVDTSSEITTKDLKEKKEVVEEAEN; ends and bridges not checked; UniProt P06454 2-29, looked up) [synthetic thymosin α1 prepared on benzhydrylamine and PAM resins; component of thymosin fraction 5]	equally active	10 to 1000
